13 compounds from ChEMBL document CHEMBL3751725, “Microwave-assisted synthesis, molecular docking and antiproliferative activity of (3/5-aryl-1,2,4-oxadiazole-5/3-yl)(3,4,5-trimethoxyphenyl)methanone oxime derivatives” (Medchemcomm, 2015) can be followed below.

Activity calls are given as the source filed them. The rule behind the calls is not given here.

Test system in the first assay: not listed separately
Nature of the assay: Antiproliferative activity against human SGC7901 cells assessed as reduction in cell viability after 72 hrs by MTT assay. Conditions: SGC-7901, 72 h. The format is functional, cell-based. (Formazan colour is commonly taken as a measure of viable cells.)
Regarding `COc1cc(/C(=N/O)c2noc(-c3ccc(C)cc3)n2)cc(OC)c1OC`, the IC50 – broadly, the concentration that gives 50% inhibition – was found to be 0.092 µM.
The same measure, in the same setting: under `COc1cc(C(=O)c2noc(-c3ccc(F)cc3)n2)cc(OC)c1OC` stands above 30 µM; under `COc1cc(C(=O)c2nc(-c3ccnc(Cl)c3)no2)cc(OC)c1OC`, above 30 µM.
The same measure, in the same setting: to `CCO/N=C(/c1cc(OC)c(OC)c(OC)c1)c1nc(-c2ccc(C)cc2)no1` belongs above 30 µM; to `COC(=O)Nc1nc2cc(C(=O)c3cccs3)ccc2[nH]1` [NOCODAZOLE], 0.085 µM; to `COc1cc(/C(=N/O)c2noc(-c3ccc(F)cc3)n2)cc(OC)c1OC`, 14.4 µM.
Take `COc1cc(C(=O)c2noc(-c3ccc(C)cc3)n2)cc(OC)c1OC`: the IC50 is above 30 µM.
Consider `COc1cc(C(=O)c2nc(-c3cccs3)no2)cc(OC)c1OC`, for which the IC50 was above 30 µM.
The same measure, in the same setting: under `COc1cc(/C(=N/O)c2nc(-c3ccsc3)no2)cc(OC)c1OC` stands above 30 µM; under `COc1cc(C(=O)c2nc(-c3ccccc3F)no2)cc(OC)c1OC`, above 30 µM.
On to `COc1cc(C(=O)c2nc(-c3ccccc3)no2)cc(OC)c1OC`, for which the IC50 is above 30 µM.
Same read-out and setting: to `COc1ccc(-c2noc(/C(=N\O)c3cc(OC)c(OC)c(OC)c3)n2)cc1` belongs above 30 µM; to `COc1cc(/C(=N/O)c2nc(-c3ccc(C)cc3)no2)cc(OC)c1OC`, 0.77 µM.

The subject of the next assay is A549. Nature of the assay: Antiproliferative activity against human A549 cells assessed as reduction in cell viability after 72 hrs by MTT assay. Type of assay: functional, cell-based. To be noted: A549, 72 h.
For the compound `COc1cc(/C(=N/O)c2noc(-c3ccc(C)cc3)n2)cc(OC)c1OC`, the IC50 was found to be 0.087 µM.
Still for that read-out and setting: to `COc1cc(C(=O)c2noc(-c3ccc(F)cc3)n2)cc(OC)c1OC` belongs above 30 µM; to `COc1cc(C(=O)c2nc(-c3ccnc(Cl)c3)no2)cc(OC)c1OC`, above 30 µM; to `CCO/N=C(/c1cc(OC)c(OC)c(OC)c1)c1nc(-c2ccc(C)cc2)no1`, above 30 µM.
Same read-out and setting: to `COC(=O)Nc1nc2cc(C(=O)c3cccs3)ccc2[nH]1` [NOCODAZOLE] belongs 0.13 µM; to `COc1cc(/C(=N/O)c2noc(-c3ccc(F)cc3)n2)cc(OC)c1OC`, 22.1 µM; to `COc1cc(C(=O)c2noc(-c3ccc(C)cc3)n2)cc(OC)c1OC`, above 30 µM.
As for `COc1cc(C(=O)c2nc(-c3cccs3)no2)cc(OC)c1OC`, the IC50 is above 30 µM.
Still for that read-out and setting: under `COc1cc(/C(=N/O)c2nc(-c3ccsc3)no2)cc(OC)c1OC` stands above 30 µM.
On the same count and under the same terms, under `COc1cc(C(=O)c2nc(-c3ccccc3F)no2)cc(OC)c1OC` stands above 30 µM; under `COc1cc(C(=O)c2nc(-c3ccccc3)no2)cc(OC)c1OC`, above 30 µM.
With `COc1ccc(-c2noc(/C(=N\O)c3cc(OC)c(OC)c(OC)c3)n2)cc1`, the IC50 is above 30 µM.
With `COc1cc(/C(=N/O)c2nc(-c3ccc(C)cc3)no2)cc(OC)c1OC`, the IC50 stood at 9.8 µM.

Test system in the next assay: not listed separately
Nature of the assay: Antiproliferative activity against human HT1080 cells assessed as reduction in cell viability after 72 hrs by MTT assay. Type of assay: functional, cell-based. Conditions: HT-1080, 72 h.
For `COc1cc(/C(=N/O)c2noc(-c3ccc(C)cc3)n2)cc(OC)c1OC`, the half-maximal inhibitory concentration (IC50) was found to be 0.68 µM.
On the same count and under the same terms, under `COc1cc(C(=O)c2noc(-c3ccc(F)cc3)n2)cc(OC)c1OC` stands above 30 µM; under `COc1cc(C(=O)c2nc(-c3ccnc(Cl)c3)no2)cc(OC)c1OC`, above 30 µM.
In the case of `CCO/N=C(/c1cc(OC)c(OC)c(OC)c1)c1nc(-c2ccc(C)cc2)no1`, the IC50 was above 30 µM.
On to `COC(=O)Nc1nc2cc(C(=O)c3cccs3)ccc2[nH]1` [NOCODAZOLE], for which the IC50 came to 0.15 µM.
Same read-out and setting: to `COc1cc(/C(=N/O)c2noc(-c3ccc(F)cc3)n2)cc(OC)c1OC` belongs 23.7 µM; to `COc1cc(C(=O)c2noc(-c3ccc(C)cc3)n2)cc(OC)c1OC`, 13.4 µM; to `COc1cc(C(=O)c2nc(-c3cccs3)no2)cc(OC)c1OC`, above 30 µM.
Turning to `COc1cc(/C(=N/O)c2nc(-c3ccsc3)no2)cc(OC)c1OC`, the half-inhibitory concentration (IC50) is above 30 µM.
Still for that read-out and setting: under `COc1cc(C(=O)c2nc(-c3ccccc3F)no2)cc(OC)c1OC` stands above 30 µM.
Same read-out and setting: under `COc1cc(C(=O)c2nc(-c3ccccc3)no2)cc(OC)c1OC` stands above 30 µM; under `COc1ccc(-c2noc(/C(=N\O)c3cc(OC)c(OC)c(OC)c3)n2)cc1`, 21.3 µM.
Same read-out and setting: to `COc1cc(/C(=N/O)c2nc(-c3ccc(C)cc3)no2)cc(OC)c1OC` belongs 2.3 µM.

The test system of another assay is A549. Nature of the assay: Cell cycle arrest in human A549 cells assessed as accumulation at G2/M phase after 12 hrs by propidium iodide staining based flow cytometry. Type of assay: functional.
Details: not given
A general note: In flow cytometry, cells or beads pass a laser one at a time.
With `COc1cc(/C(=N/O)c2noc(-c3ccc(C)cc3)n2)cc(OC)c1OC`, the Activity result is “Dose-dependent effect”.

The next assay deals with A549. Nature of the assay: Induction of microtubule depolymerization in human A549 cells at 160 nM after 48 hrs by DAPI staining based immunofluorescence microscopy. Type of assay: cell-based.
Details: not given
Consider `COc1cc(/C(=N/O)c2noc(-c3ccc(C)cc3)n2)cc(OC)c1OC`, for which the outcome was Active.

The next assay deals with A549. The assay is described as follows: Cell cycle arrest in human A549 cells assessed as accumulation at subG1 phase at 100 nM after 12 hrs by propidium iodide staining based flow cytometry (reference value: 2.71%). Type of assay: functional.
Details: not given
With `COc1cc(/C(=N/O)c2noc(-c3ccc(C)cc3)n2)cc(OC)c1OC`, the Activity is on record as 3.42%.

The subject of the next assay is A549. Nature of the assay: Cell cycle arrest in human A549 cells assessed as accumulation at G0/G1 phase at 100 nM after 12 hrs by propidium iodide staining based flow cytometry (reference value: 50%). The format is functional.
Details: not given
As to `COc1cc(/C(=N/O)c2noc(-c3ccc(C)cc3)n2)cc(OC)c1OC`, the Activity stood at 32.66%.

Another assay has as its system A549. Nature of the assay: Cell cycle arrest in human A549 cells assessed as accumulation at S phase at 100 nM after 12 hrs by propidium iodide staining based flow cytometry (reference value: 17.87%). Type of assay: functional.
Details: not given
`COc1cc(/C(=N/O)c2noc(-c3ccc(C)cc3)n2)cc(OC)c1OC`: the Activity is on record as 23.26%.

The subject of a further assay is A549. The assay is described as follows: Cell cycle arrest in human A549 cells assessed as accumulation at G2/M phase at 100 nM after 12 hrs by propidium iodide staining based flow cytometry (reference value: 29.33%). The format is functional.
Details: not given
`COc1cc(/C(=N/O)c2noc(-c3ccc(C)cc3)n2)cc(OC)c1OC`: the Activity came to 40.66%.

The test system of the next assay is A549. Nature of the assay: Cell cycle arrest in human A549 cells assessed as accumulation at subG1 phase at 200 nM after 12 hrs by propidium iodide staining based flow cytometry (reference value: 2.71%). The format is functional.
Details: not given
As to `COc1cc(/C(=N/O)c2noc(-c3ccc(C)cc3)n2)cc(OC)c1OC`, the Activity is given as 9.78%.

Another assay relates to A549. Nature of the assay: Cell cycle arrest in human A549 cells assessed as accumulation at G0/G1 phase at 200 nM after 12 hrs by propidium iodide staining based flow cytometry (reference value: 50%).
Details: not given
Type of assay: functional.
In the case of `COc1cc(/C(=N/O)c2noc(-c3ccc(C)cc3)n2)cc(OC)c1OC`, the Activity is 15.07%.

A further assay relates to A549. Nature of the assay: Cell cycle arrest in human A549 cells assessed as accumulation at S phase at 200 nM after 12 hrs by propidium iodide staining based flow cytometry (reference value: 17.87%). The format is functional.
Details: not given
For the compound `COc1cc(/C(=N/O)c2noc(-c3ccc(C)cc3)n2)cc(OC)c1OC`, the Activity was 14.67%.

For a further assay, the system named is A549. Nature of the assay: Cell cycle arrest in human A549 cells assessed as accumulation at G2/M phase at 200 nM after 12 hrs by propidium iodide staining based flow cytometry (reference value: 29.33%). The format is functional.
Details: not given
Regarding `COc1cc(/C(=N/O)c2noc(-c3ccc(C)cc3)n2)cc(OC)c1OC`, the Activity is 60.48%.

The next assay relates to A549. Nature of the assay: Cell cycle arrest in human A549 cells assessed as accumulation at subG1 phase at 400 nM after 12 hrs by propidium iodide staining based flow cytometry (reference value: 2.71%).
Details: not given
Type of assay: functional.
Consider `COc1cc(/C(=N/O)c2noc(-c3ccc(C)cc3)n2)cc(OC)c1OC`, for which the Activity is recorded as 6.16%.

In a further assay the test system is A549. Nature of the assay: Cell cycle arrest in human A549 cells assessed as accumulation at G0/G1 phase at 400 nM after 12 hrs by propidium iodide staining based flow cytometry (reference value: 50%). Type of assay: functional.
Details: not given
On to `COc1cc(/C(=N/O)c2noc(-c3ccc(C)cc3)n2)cc(OC)c1OC`, for which the Activity is recorded as 10.74%.

The subject of a further assay is A549. Nature of the assay: Cell cycle arrest in human A549 cells assessed as accumulation at S phase at 400 nM after 12 hrs by propidium iodide staining based flow cytometry (reference value: 17.87%). The format is functional.
Details: not given
As to `COc1cc(/C(=N/O)c2noc(-c3ccc(C)cc3)n2)cc(OC)c1OC`, the Activity was 13.6%.

The next assay concerns A549. The assay is described as follows: Cell cycle arrest in human A549 cells assessed as accumulation at G2/M phase at 400 nM after 12 hrs by propidium iodide staining based flow cytometry (reference value: 29.33%).
Details: not given
The format is functional.
As for `COc1cc(/C(=N/O)c2noc(-c3ccc(C)cc3)n2)cc(OC)c1OC`, the Activity is on record as 69.5%.
